In patent publication US8063042B2, “Heterocyclic compounds” (Hoffmann-La Roche Inc., priority 2007, dated 2011):
pIC50: −log10 of the molar value.

Target: T1, human chemokine receptor 2 isoform B (Homo sapiens, UniProt P41597)
T1 construct: host or cells: CHOK1-CCR2B-A5 (CHO-K1) cells
T1 sequence (P41597 1-360 isoform P41597-2): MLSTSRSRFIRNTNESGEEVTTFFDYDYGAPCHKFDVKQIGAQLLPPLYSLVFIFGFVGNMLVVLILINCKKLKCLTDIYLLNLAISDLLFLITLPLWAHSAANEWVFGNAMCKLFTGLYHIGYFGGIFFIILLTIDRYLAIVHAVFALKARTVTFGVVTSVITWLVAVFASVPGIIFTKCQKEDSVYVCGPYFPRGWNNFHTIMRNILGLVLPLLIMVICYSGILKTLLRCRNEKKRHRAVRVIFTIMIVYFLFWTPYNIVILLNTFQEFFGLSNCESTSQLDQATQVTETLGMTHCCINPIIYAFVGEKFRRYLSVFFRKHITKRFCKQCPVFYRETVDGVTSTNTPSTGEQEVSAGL
Experiment: Calcium mobilization assay
Format: cell-based
Settings: Ca mobilisation assay for CCR2; CHOK1-CCR2B-A5 cells; antagonist activity against 20 nM MCP-1
Description: Calcium Mobilization Assay
CHOK1-CCR2B-A5 cells (from Euroscreen) stably overexpressing the human chemokine receptor 2 isoform B were cultured in Nutrient Hams F12 medium supplemented with 5% FBS, 100 U/ml penicillin, 100 μg/ml streptomycin, 400 μg/ml G418 and 5 μg/ml puromycin. For the assay cells were grown overnight in 384-well black clear flat bottom polystyrene plates (Costar) at 37° C. at 5% CO2. After washing with DMEM, 20 mM Hepes, 2.5 mM probenecid, 0.1% BSA (DMEM assay buffer) cells were loaded with 4 μM Fluo-4 in the same DMEM assay buffer for 2 hours at 30° C. Excess dye was removed and cells were washed with DMEM assay buffer. 384-well compound plates were prepared with DMEM assay buffer/0.5% DMSO with or without various concentrations of test compounds. Usually compounds were tested for agonist and antagonist activity.
Test compounds were added to the assay plate and agonist activity was monitored as fluorescence for 80 seconds with a FLIPR (488 nm excitation; 510-570 nm emission; Molecular Devices). After 20-30 min. of incubation at 30° C., 20 nM MCP-1 (R&D; Roche) was added and fluorescence was monitored again for 80 seconds. Increases in intracellular calcium are reported as maximum fluorescence after agonist exposure minus basal fluorescence before exposure. Antagonist activity is indicated as inhibitor concentration required for 50% inhibition of specific calcium increases.

SMILES	pIC50
CC1C(=O)N(CCCN2CCC3(CC3)[C@H](O)C2)CCN1C(=O)/C=C/c1ccc(Cl)c(F)c1 (stereo partly drawn) [Example 39, 4-[(E)-3-(4-Chloro-3-fluoro-phenyl)-acryloyl]-1-[3-((S)-4-hydroxy-6-aza-spiro[2,5]oct-6-yl)-propyl]-3-methyl-piperazin-2-one]	7.86
CC1C(=O)N(CCCN2CCCC2)CCN1C(=O)/C=C/c1ccc(Cl)c(Cl)c1 (centres unmarked) [Example 15, 4-[(E)-3-(3,4-Dichloro-phenyl)-acryloyl]-3-methyl-1-(3-pyrrolidin-1-yl-propyl)-piperazin-2-one]	7.12
O=C(/C=C/c1ccc(Cl)c(Cl)c1)N1CCN(CCCN2CCC(O)CC2)C(=O)C1 [Example 11, 4-[(E)-3-(3,4-Dichloro-phenyl)-acryloyl]-1-[3-(4-hydroxy-piperidin-1-yl)-propyl]-piperazin-2-one]	6.55
O=C(/C=C/c1ccc(Cl)c(Cl)c1)N1CCN(CCCN2CCCCC2)S(=O)(=O)C1 [Example 34, (E)-3-(3,4-Dichloro-phenyl)-1-[1,1-dioxo-2-(3-piperidin-1-yl-propyl)-[1,2,5]thiadiazinan-5-yl]-propenone]	6.69
O=C(/C=C/c1ccc(Cl)c(Cl)c1)N1CCN(CCCN2CCC(CO)C2)C(=O)C1 (centres unmarked) [Example 14, 4-[(E)-3-(3,4-Dichloro-phenyl)-acryloyl]-1-[3-(3-hydroxymethyl-pyrrolidin-1-yl)-propyl]-piperazin-2-one]	6.51
